Assay results as given in ChEMBL document CHEMBL1201862, “PubChem BioAssay data set” (2004).
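96-well plates; 48 h exposure; 5 concentrations. Endpoints by linear interpolation between flanking doses. Not reached: highest tested concentration assigned. Here, GI50 denotes the concentration required for 50% inhibition of growth.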 The source made the active and inactive calls. No stated cut-off is given here; in the data, active = GI50 up to about 1.1 µM and inactive = higher.

Experiments:
Assay in all cases: NCI tumour cell line growth inhibition, 48 h
DMS-273 = system: DMS-273
KM-20L2 = system: KM-20L2
XF498 = system: XF498
LXFL 529 = system: LXFL 529
DMS-114 = system: DMS-114
SNB-78 = system: SNB-78
DLD-1 = system: DLD-1
RXF 631 = system: RXF 631
HOP-18 = system: HOP-18

Measured: GI50

C=CCNC(=S)N1c2ccccc2NC(=O)CC1C (configuration not stated)
inactive: DMS-273 > 100 µM | KM-20L2 > 100 µM | XF498 > 100 µM | LXFL 529 > 100 µM | DMS-114 > 100 µM | SNB-78 > 100 µM

N=C(N)N/N=C(/CCN1CCCC1)CC(c1ccccc1)c1c(O)c2ccccc2oc1=O (configuration not stated)
inactive: DLD-1 > 100 µM | KM-20L2 > 100 µM | XF498 > 100 µM | RXF 631 > 100 µM | LXFL 529 > 100 µM | DMS-114 > 100 µM

N#CC(C(=O)C(=O)Nc1ccc(Cl)c(Cl)c1)c1ccc(Cl)cc1 (configuration not stated)
inactive: DMS-273 > 100 µM | HOP-18 41 µM | DLD-1 44.1 µM | KM-20L2 > 100 µM | XF498 61 µM | LXFL 529 77.1 µM | DMS-114 22.9 µM | SNB-78 > 100 µM

Cc1[nH]c2ccccc2c1CC/C(=N\Nc1ccccc1)c1ccccc1
inactive: DMS-273 > 100 µM | DLD-1 > 100 µM | KM-20L2 > 100 µM | XF498 78.2 µM | RXF 631 > 100 µM | SNB-78 > 100 µM

Cc1ccc(NC(=O)SCCC(=O)O)cc1NC(=O)SCCC(=O)O
inactive: DMS-273 > 10 µM | DLD-1 > 10 µM | KM-20L2 > 100 µM | LXFL 529 > 100 µM | DMS-114 > 100 µM | SNB-78 > 100 µM

CCNC(=O)O/N=C1/C=C2CC[C@@H]3C(CC[C@@]4(C)C3CC[C@@H]4OC(=O)NCC)[C@@]2(C)CC1 (some centres not stated)
inactive: DMS-273 1.99 µM | DLD-1 5.9 µM | KM-20L2 2.28 µM | LXFL 529 1.79 µM | DMS-114 1.66 µM | SNB-78 2.67 µM

CCOc1c(Cc2ccccc2)c(=O)n2c3ccccc3n3c(=O)n(C)c(=O)c1c23
inactive: DMS-273 > 100 µM | HOP-18 > 100 µM | DLD-1 > 100 µM | XF498 > 100 µM | RXF 631 > 100 µM | LXFL 529 > 100 µM | DMS-114 > 100 µM | SNB-78 > 100 µM

CCCCCCCCCOC(=S)NCCCCC
inactive: DMS-273 25.5 µM | HOP-18 33.4 µM | DLD-1 35.6 µM | KM-20L2 23.8 µM | LXFL 529 33.3 µM | DMS-114 21.7 µM | SNB-78 40.6 µM

Cn1c(=O)c2nc(-c3ccc(Cl)cc3)oc2n(C)c1=O
inactive: DMS-273 > 100 µM | HOP-18 > 100 µM | DLD-1 > 100 µM | KM-20L2 > 100 µM | XF498 > 100 µM | LXFL 529 > 100 µM | DMS-114 > 100 µM | SNB-78 > 100 µM

OC[C@@H]1CC#C/C=C\C#CC[C@@H]1CO
active: XF498 0.471 µM
inactive: HOP-18 > 100 µM | DLD-1 > 100 µM | DMS-114 > 100 µM | SNB-78 > 100 µM

Cc1ccc(S(=O)OC2c3ccccc3Cc3ccccc32)cc1 (configuration not stated)
inactive: DMS-273 17.5 µM | HOP-18 24.8 µM | DLD-1 22.9 µM | KM-20L2 19.9 µM | XF498 15.2 µM | RXF 631 17.2 µM | LXFL 529 16.4 µM | DMS-114 20.2 µM | SNB-78 19.9 µM

CC[C@](C)(O)C(=O)O[C@H]1C(=O)O[C@@H]2C[C@H]3C(C)=CC(=O)[C@@H](O)[C@]3(C)[C@H]3[C@@]4(O)OC[C@]32[C@@H]1[C@@H](C)[C@H]4O [GLAUCARUBINONE]
active: DMS-273 0.05 µM | RXF 631 0.543 µM | LXFL 529 < 0.0111 µM | SNB-78 0.0668 µM

Oc1cc(-c2cccc(Br)c2)nc2cc3c(cc12)OCO3
inactive: DMS-273 4.37 µM | HOP-18 15.7 µM | DLD-1 3.16 µM | XF498 4.16 µM | LXFL 529 2.26 µM | DMS-114 2.85 µM | SNB-78 3.37 µM

CCCCCCCC/C=C1\CCC(CN2CCOCC2)C1=O (configuration not stated)
inactive: HOP-18 13.1 µM | DLD-1 2.8 µM | KM-20L2 16.3 µM | XF498 14.2 µM | RXF 631 8.95 µM | LXFL 529 4.54 µM | DMS-114 6.41 µM | SNB-78 10.5 µM

O=c1cccccc1NCCCCCCCNc1cccccc1=O
inactive: DMS-273 33.3 µM | DLD-1 42.6 µM | KM-20L2 38.1 µM | XF498 10.6 µM | RXF 631 8.02 µM | LXFL 529 16.9 µM | SNB-78 47.8 µM

COC(=O)NN1C(C)=C(C(=O)OC)C2(C#N)C(C(=O)OC)=C(C)N(NC(=O)OC)C12N (configuration not stated)
inactive: DMS-273 > 100 µM | HOP-18 > 100 µM | DLD-1 > 100 µM | KM-20L2 > 100 µM | XF498 > 100 µM | RXF 631 > 100 µM | LXFL 529 > 100 µM | DMS-114 > 100 µM | SNB-78 > 100 µM

Cc1ccc(Oc2ccccc2N)cc1
inactive: DMS-273 32 µM | HOP-18 > 100 µM | DLD-1 35 µM | KM-20L2 12.7 µM | XF498 17.8 µM | RXF 631 > 100 µM | LXFL 529 15.7 µM | DMS-114 17.4 µM | SNB-78 29 µM

O=c1oc2c3ccc4ccccc4c3n(CCN3CCCCC3)c2c2ccccc12
inactive: DMS-273 38.3 µM | HOP-18 > 100 µM | DLD-1 30.2 µM | KM-20L2 > 61 µM | XF498 21.4 µM | RXF 631 24.6 µM | LXFL 529 43.9 µM | DMS-114 > 76 µM | SNB-78 20.9 µM

C/N=C(\SC)N(C)c1nc(=[N+](C)C)ss1.[O-][Cl+3]([O-])([O-])[O-]
inactive: DMS-273 > 100 µM | XF498 32.6 µM | RXF 631 2.28 µM | LXFL 529 58.6 µM | SNB-78 > 100 µM

CC1C(=O)N(C)C2(CO)C(=O)O[C@H](C)C12O (some centres not stated)
inactive: HOP-18 > 100 µM | DLD-1 > 100 µM | DMS-114 > 100 µM | SNB-78 > 100 µM
